T1: E. coli RodA-PBP2 fusion (PBP2 TP domain) (Escherichia coli, UniProt P0AD65)
T1 construct: gene mrdA; with Peptidoglycan glycosyltransferase MrdB
T1 sequence (P0AD65 1-633): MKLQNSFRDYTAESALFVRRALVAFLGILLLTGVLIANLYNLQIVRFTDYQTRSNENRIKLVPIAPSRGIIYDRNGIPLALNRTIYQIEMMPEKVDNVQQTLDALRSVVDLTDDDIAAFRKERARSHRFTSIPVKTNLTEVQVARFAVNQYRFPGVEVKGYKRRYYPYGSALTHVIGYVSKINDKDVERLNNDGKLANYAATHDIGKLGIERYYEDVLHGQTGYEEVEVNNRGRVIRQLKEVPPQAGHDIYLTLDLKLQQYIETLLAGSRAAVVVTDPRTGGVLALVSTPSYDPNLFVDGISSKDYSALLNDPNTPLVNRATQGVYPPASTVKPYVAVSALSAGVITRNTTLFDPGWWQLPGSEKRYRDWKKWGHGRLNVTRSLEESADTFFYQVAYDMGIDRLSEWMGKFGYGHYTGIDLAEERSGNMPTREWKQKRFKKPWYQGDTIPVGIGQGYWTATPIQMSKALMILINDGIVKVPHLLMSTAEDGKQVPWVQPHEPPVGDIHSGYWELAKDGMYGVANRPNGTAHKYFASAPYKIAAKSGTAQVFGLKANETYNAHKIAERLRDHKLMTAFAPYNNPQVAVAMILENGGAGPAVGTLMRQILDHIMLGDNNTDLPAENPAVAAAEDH
T1 sequence (P0ABG7 1-370 partner): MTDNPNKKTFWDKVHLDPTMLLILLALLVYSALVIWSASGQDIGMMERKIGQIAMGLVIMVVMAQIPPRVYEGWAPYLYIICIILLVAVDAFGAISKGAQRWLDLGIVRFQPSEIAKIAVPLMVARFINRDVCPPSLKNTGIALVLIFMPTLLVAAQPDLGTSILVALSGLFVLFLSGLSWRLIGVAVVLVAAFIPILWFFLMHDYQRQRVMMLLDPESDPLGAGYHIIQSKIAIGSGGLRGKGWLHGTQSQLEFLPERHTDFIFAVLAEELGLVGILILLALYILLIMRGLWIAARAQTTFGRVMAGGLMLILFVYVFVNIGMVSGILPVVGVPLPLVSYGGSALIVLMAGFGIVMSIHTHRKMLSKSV

T2: E. coli PBP2 (Escherichia coli str. K-12 substr. …, UniProt P0AD65 1-633)
T2 construct: K-12 substr; MG1655, UniProt P0AD65; residues 10-343, 401-430, 457-540 and 569-612 built in the map; PBP2 Gln99 is residue 476 in the fusion; the poly-histidine tag of the fusion is written on m1; also called transpeptidase (TP); source: E. coli BL21(DE3) pLysS, purified (Ni-NTA, SEC), reconstituted in POPG / MSP1E3D1 nanodiscs
T2 sequence (looked up): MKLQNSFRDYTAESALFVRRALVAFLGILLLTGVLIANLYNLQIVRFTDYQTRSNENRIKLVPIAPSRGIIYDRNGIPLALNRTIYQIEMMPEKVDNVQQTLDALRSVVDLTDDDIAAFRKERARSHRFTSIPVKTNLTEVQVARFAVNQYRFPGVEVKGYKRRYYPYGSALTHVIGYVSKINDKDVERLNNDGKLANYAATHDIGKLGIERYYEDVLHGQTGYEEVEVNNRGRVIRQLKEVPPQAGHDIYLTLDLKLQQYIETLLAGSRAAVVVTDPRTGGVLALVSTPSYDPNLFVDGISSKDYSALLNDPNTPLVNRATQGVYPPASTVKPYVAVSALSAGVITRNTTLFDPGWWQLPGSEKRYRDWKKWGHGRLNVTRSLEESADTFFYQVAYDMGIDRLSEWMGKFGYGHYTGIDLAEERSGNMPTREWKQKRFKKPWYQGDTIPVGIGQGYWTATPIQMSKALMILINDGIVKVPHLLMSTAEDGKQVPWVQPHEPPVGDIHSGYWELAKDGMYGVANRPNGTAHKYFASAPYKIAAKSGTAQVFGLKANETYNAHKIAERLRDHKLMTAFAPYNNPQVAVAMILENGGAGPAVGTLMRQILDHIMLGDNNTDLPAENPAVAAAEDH


Tests used:
[1] = target: T1, E. coli RodA-PBP2 fusion (PBP2 TP domain); assay: fluorescent bocillin labelling, SDS-PAGE; assay type: binding; conditions: covalent; TP active site of PBP2; labelled compound; 15 min
[2] = target: T2, E. coli PBP2; assay: cryo-EM structure; single-particle cryo-EM of the RodA-PBP2 fusion (one chain, TSGSGSGS linker) in POPG / MSP1E3D1 nanodiscs; 20 mM HEPES pH 7, 150 mM NaCl, 1 mM TCEP; 0.66 mg/ml (5.9 uM); conditions: both partners purified

Row | binding result [2] | Molecule | fluorescent bocillin labelling, SDS-PAGE [1]
1 |  | Cc1cc(C)n2c1C=C1C=CC(CCC(=O)Nc3ccc(OCC(=O)N[C@@H]4C(=O)N5[C@@H]4SC(C)(C)[C@@H]5C(=O)O)cc3)=[N+]1[B-]2(F)F [bocillin] | The TP domain binds (and is covalently modified by) a fluorescent penicillin mimic bocillin
2 | binds | E. coli RodA (enzyme, UniProt P0ABG7 1-370, looked up, RodA, Escherichia coli str; K-12 substr; MG1655; UniProt ID printed as '0ABG7'; residues 9-93 and 109-364 built in the map; They are written as two molecules for the pair row; No TEV cleavage is described; also called SEDS glycosyltransferase (GT); RodA part of the RodA-PBP2 fusion; source: E. coli BL21(DE3) pLysS, purified (Ni-NTA, SEC), reconstituted in POPG / MSP1E3D1 nanodiscs) MTDNPNKKTFWDKVHLDPTMLLILLALLVYSALVIWSASGQDIGMMERKIGQIAMGLVIMVVMAQIPPRVYEGWAPYLYIICIILLVAVDAFGAISKGAQRWLDLGIVRFQPSEIAKIAVPLMVARFINRDVCPPSLKNTGIALVLIFMPTLLVAAQPDLGTSILVALSGLFVLFLSGLSWRLIGVAVVLVAAFIPILWFFLMHDYQRQRVMMLLDPESDPLGAGYHIIQSKIAIGSGGLRGKGWLHGTQSQLEFLPERHTDFIFAVLAEELGLVGILILLALYILLIMRGLWIAARAQTTFGRVMAGGLMLILFVYVFVNIGMVSGILPVVGVPLPLVSYGGSALIVLMAGFGIVMSIHTHRKMLSKSV | 

Source: publication PMC10449877, “Structural basis of peptidoglycan synthesis by E. coli RodA-PBP2 complex” (Nature Communications, 2023)
